In patent publication US5162328A, “N-[3-[2-(1H-imidazol-1-yl)ethoxy]phenyl]-4-(2-thienyl)-2-pyrimidinamine and pharmacologically acceptable salts” (American Cyanamid Company, priority 1991, dated 1992):
Read-outs that look alike come from different tables or passages of the source.

Test: Pharmacokinetics in dogs (plasma concentration by HPLC)
Assay type: in vivo, dog (beagle)
Conditions: dog; for concentration at 0.5 h / concentration at 1 h / concentration at 2 h / concentration at 4 h / concentration at 7 h / concentration at 12 h / AUC(0-t) / Cmax / Tmax / half-life / AUC(0-inf): plasma, po, 2 mg/kg/day, 2 mg/kg/day PO; for AUC(0-inf): read-out: AUCO- (to infinite time)
Procedure: Since dogs are used in toxicology studies of antiasthma compounds, this species is chosen for pharmacokinetic evaluations. Use of the dog permits the pharmacokinetic comparison of 2 or more compounds in the same test animal, an evaluation which could not be conveniently performed in a smaller species. For each test compound, normal dogs are given a dose of 2.0 mg/kg/day for 5 consecutive days. There is a washout period of 1 month between the study of each of the test compounds in the same four dogs. Each test compound is administered as a solution of 5 mg/ml in either 0.05 or 0.1N HCl which is dispensed into a gelatin capsule immediately prior to dosage.
Heparinized blood samples are obtained from each animal on the first, third and fifth day of dosage at 0.5, 1.0, 2.0, 4.0, 7.0, 12.0 and 24.0 hours after the dose. The samples are centrifuged immediately to obtain plasma which is frozen until analyzed.
Analysis of plasma is performed using High Performance Liquid Chromatography (HPLC). The analytical procedure is essentially identical for each compound. The internal standard used for N-[3-[2-(1H-imidazol-1-yl)ethoxy]phenyl]-4-(2-thienyl)2-pyrimidinamine is 2-chloro-11-(4-methyl-1-piperazinyl)dibenz[b,f][1,4]oxazepine succinate, while for 2-methyl-N^4 -[4-(4-pyridinyl)-2-pyrimidinyl]-1,4-benzenediamine dihydrochloride and N-[4-[2-(diethylamino)ethoxy]phenyl]-4-(4-pyridinyl)-2-pyrimidnamine dihydrochloride the internal standard is 7-ethoxy-coumarin. In a typical procedure, a 0.4 ml volume of acetonitrile containing internal standard is added a 0.2 ml volume of serum. The sample is mixed by vortexing and centrifuged. The clear protein free supernatent fluid is decanted into a clean tube and evaporated to dryness. The dry residue is dissolved in 0.2 ml of HPLC mobile phase and 50 ul of this solution injected. Peaks corresponding to the test compound being measured and to the internal standard compound are quantitated by their absorption of ultraviolet light at 280 nm. Each set of analytical samples is accompanied by the analysis of a group of standard dog plasma samples prepared to contain amounts of the compound being measured which encompasses the concentration range of the samples.
Four normal beagle dogs weighing between 9.2 and 10.2 Kg are used in the study.

- concentration at 0.5 h (Dog 1, day 1, 0.5 h): 483 ng/mL
- concentration at 1 h (Dog 1, day 1, 1 h): 595 ng/mL
- concentration at 2 h (Dog 1, day 1, 2 h): 392 ng/mL
- concentration at 4 h (Dog 1, day 1, 4 h): 281 ng/mL
- concentration at 7 h (Dog 1, day 1, 7 h): 122 ng/mL
- concentration at 12 h (Dog 1, day 1, 12 h): < 30 ng/mL
- AUC(0-t) (Dog 1, day 1): 2160 ng·h/mL
- Cmax (Dog 1, day 1): 595 ng/mL
- Tmax (Dog 1, day 1): 1 h
- half-life (Dog 1, day 1): 165 min
- AUC(0-inf) (Dog 1, day 1): 2480 ng·h/mL
- concentration at 0.5 h (Dog 1, day 3, 0.5 h): < 30 ng/mL
- concentration at 1 h (Dog 1, day 3, 1 h): 125 ng/mL
- concentration at 2 h (Dog 1, day 3, 2 h): 98 ng/mL
- concentration at 4 h (Dog 1, day 3, 4 h): < 30 ng/mL
- concentration at 7 h (Dog 1, day 3, 7 h): < 30 ng/mL
- concentration at 12 h (Dog 1, day 3, 12 h): < 30 ng/mL
- AUC(0-t) (Dog 1, day 3): 143 ng·h/mL
- Cmax (Dog 1, day 3): 125 ng/mL
- Tmax (Dog 1, day 3): 1 h
- AUC(0-inf) (Dog 1, day 3): 398 ng·h/mL
- concentration at 0.5 h (Dog 1, day 5, 0.5 h): 339 ng/mL
- concentration at 1 h (Dog 1, day 5, 1 h): 418 ng/mL
- concentration at 2 h (Dog 1, day 5, 2 h): 267 ng/mL
- concentration at 4 h (Dog 1, day 5, 4 h): 112 ng/mL
- concentration at 7 h (Dog 1, day 5, 7 h): < 30 ng/mL
- concentration at 12 h (Dog 1, day 5, 12 h): < 30 ng/mL
- AUC(0-t) (Dog 1, day 5): 996 ng·h/mL
- Cmax (Dog 1, day 5): 418 ng/mL
- Tmax (Dog 1, day 5): 1 h
- half-life (Dog 1, day 5): 94.8 min
- AUC(0-inf) (Dog 1, day 5): 1290 ng·h/mL
- concentration at 0.5 h (Dog 2, day 1, 0.5 h): 185 ng/mL
- concentration at 1 h (Dog 2, day 1, 1 h): 334 ng/mL
- concentration at 2 h (Dog 2, day 1, 2 h): 251 ng/mL
- concentration at 4 h (Dog 2, day 1, 4 h): 161 ng/mL
- concentration at 7 h (Dog 2, day 1, 7 h): < 30 ng/mL
- concentration at 12 h (Dog 2, day 1, 12 h): < 30 ng/mL
- AUC(0-t) (Dog 2, day 1): 881 ng·h/mL
- Cmax (Dog 2, day 1): 334 ng/mL
- Tmax (Dog 2, day 1): 1 h
- half-life (Dog 2, day 1): 173 min
- AUC(0-inf) (Dog 2, day 1): 1300 ng·h/mL
- concentration at 0.5 h (Dog 2, day 3, 0.5 h): < 30 ng/mL
- concentration at 1 h (Dog 2, day 3, 1 h): 205 ng/mL
- concentration at 2 h (Dog 2, day 3, 2 h): 129 ng/mL
- concentration at 4 h (Dog 2, day 3, 4 h): 36 ng/mL
- concentration at 7 h (Dog 2, day 3, 7 h): < 30 ng/mL
- concentration at 12 h (Dog 2, day 3, 12 h): < 30 ng/mL
- AUC(0-t) (Dog 2, day 3): 383 ng·h/mL
- Cmax (Dog 2, day 3): 205 ng/mL
- Tmax (Dog 2, day 3): 1 h
- half-life (Dog 2, day 3): 70.8 min
- AUC(0-inf) (Dog 2, day 3): 477 ng·h/mL
- concentration at 0.5 h (Dog 2, day 5, 0.5 h): 54 ng/mL
- concentration at 1 h (Dog 2, day 5, 1 h): 222 ng/mL
- concentration at 2 h (Dog 2, day 5, 2 h): 149 ng/mL
- concentration at 4 h (Dog 2, day 5, 4 h): 30 ng/mL
- concentration at 7 h (Dog 2, day 5, 7 h): < 30 ng/mL
- concentration at 12 h (Dog 2, day 5, 12 h): < 30 ng/mL
- AUC(0-t) (Dog 2, day 5): 447 ng·h/mL
- Cmax (Dog 2, day 5): 222 ng/mL
- Tmax (Dog 2, day 5): 1 h
- half-life (Dog 2, day 5): 59.4 min
- AUC(0-inf) (Dog 2, day 5): 525 ng·h/mL
- concentration at 0.5 h (Dog 3, day 1, 0.5 h): 97 ng/mL
- concentration at 1 h (Dog 3, day 1, 1 h): 325 ng/mL
- concentration at 2 h (Dog 3, day 1, 2 h): 303 ng/mL
- concentration at 4 h (Dog 3, day 1, 4 h): 138 ng/mL
- concentration at 7 h (Dog 3, day 1, 7 h): 45 ng/mL
- concentration at 12 h (Dog 3, day 1, 12 h): < 30 ng/mL
- AUC(0-t) (Dog 3, day 1): 1160 ng·h/mL
- Cmax (Dog 3, day 1): 325 ng/mL
- Tmax (Dog 3, day 1): 1 h
- half-life (Dog 3, day 1): 109 min
- AUC(0-inf) (Dog 3, day 1): 1280 ng·h/mL
- concentration at 0.5 h (Dog 3, day 3, 0.5 h): 292 ng/mL
- concentration at 1 h (Dog 3, day 3, 1 h): 350 ng/mL
- concentration at 2 h (Dog 3, day 3, 2 h): 220 ng/mL
- concentration at 4 h (Dog 3, day 3, 4 h): 60 ng/mL
- concentration at 7 h (Dog 3, day 3, 7 h): < 30 ng/mL
- concentration at 12 h (Dog 3, day 3, 12 h): < 30 ng/mL
Structure (SMILES): c1cc(Nc2nccc(-c3cccs3)n2)cc(OCCn2ccnc2)c1 [N-[3-[2-(1H-imidazol-1-yl)ethoxy]phenyl]-4-(2-thienyl)-2-pyrimidinamine]
- concentration in plasma over a 12 hour period (in words) (after first dose, FIG. 4): at a higher level for a longer period than the other test compounds
